Values belong to the compound of their own block, whether it stands above or below them.
Experiments:
[1] = biological target: T1, NgUPPS (undecaprenyl diphosphate synthase) (Neisseria gonorrhoeae, UniProt Q5F5X2); assay: pyrophosphatase-coupled phosphate release, Biomol Green; assay type: biochemical
T1 sequence (Q5F5X2 1-248): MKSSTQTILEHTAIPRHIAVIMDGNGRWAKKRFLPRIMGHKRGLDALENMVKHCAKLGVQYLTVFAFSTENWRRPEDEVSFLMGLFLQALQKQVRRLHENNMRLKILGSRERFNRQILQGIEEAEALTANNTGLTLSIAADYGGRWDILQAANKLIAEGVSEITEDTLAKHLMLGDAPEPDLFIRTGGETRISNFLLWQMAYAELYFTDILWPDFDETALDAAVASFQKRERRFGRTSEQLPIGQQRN

[2] = biological target: T1, NgUPPS (undecaprenyl diphosphate synthase); assay: crystal structure; assay type: binding

crystal structure (soaking); WAC-MS hit ([2]; region 1, two sites): 9OHG (PS-5570)
SMILES: OCc1cccs1 [PS-5570]

crystal structure (soaking); WAC-MS hit ([2]; region 2): 9OI6 (FD-0739)
SMILES: O=C(O)c1cc(C(F)(F)F)ccn1 [FD-0739]

crystal structure (soaking); WAC-MS hit ([2]; region 1, two sites): 9OHI (PS-5549)
SMILES: Cc1nonc1CO [PS-5549]

crystal structure (soaking); WAC-MS hit ([2]; region 3): 9OI5 (PS-4845)
SMILES: Brc1ccc(-c2cc[nH]n2)s1 [PS-4845]

crystal structure (soaking); WAC-MS hit ([2]; region 1): 9OHO (PS-3756)
SMILES: NCc1cccc(O)c1 [PS-3756]

crystal structure (soaking); WAC-MS hit ([2]; region 1): 9OHB (PS-5485)
SMILES: OCc1ccccc1Cl [PS-5485]

crystal structure (soaking); WAC-MS hit ([2]; region 1, two sites): 9OIW (GF-0701)
SMILES: O=C(O)c1ncccc1F [GF-0701]

Further lines, the compound ahead of its results:

SMILES: O=C(Nc1cccc(Oc2ccc(C(=O)O)c(C(=O)O)c2)c1)c1ccc(-c2ccccc2)cc1 [compound 10, 4-{3-[(biphenyl-4-ylcarbonyl)amino]phenoxy}benzene-1,2-dicarboxylic acid]
IC50 [1]: 3.4 µM

SMILES: Brc1ccsc1-c1ccn[nH]1 [4W-0801]
crystal structure (soaking); WAC-MS hit ([2]; region 3 (hydrophobic core)): 9OIV (4W-0801)

SMILES: O=C(O)c1ccc(C(F)(F)F)cn1 [FC-0609]
crystal structure (soaking); WAC-MS hit ([2]; region 4): 9OJA (FC-0609)

SMILES: O=C(O)c1ccc(Br)cn1 [5Br-P]
crystal structure (soaking); WAC-MS hit ([2]; region 2): 9OJE (5Br-P)

SMILES: Clc1ccc2nc(N3CCNCC3)sc2c1 [PS-0394]
crystal structure (soaking); WAC-MS hit ([2]; region 3, code printed PS-0394 with the PDB id but PS-3094): 9OJB (PS-0394)

SMILES: Cc1ccc(O)c(-c2cc[nH]n2)c1 [BA-0843]
crystal structure (soaking); WAC-MS hit ([2]; region 3): 9OHP (BA-0843)

SMILES: Nc1cc(-c2cccc(C(F)(F)F)c2)no1 [DA-0841]
crystal structure (soaking); WAC-MS hit ([2]; region 2): 9OIY (DA-0841)

SMILES: Nc1cc(-c2ccc(C(F)(F)F)cc2)no1 [DA-0854]
crystal structure (soaking); WAC-MS hit ([2]; region 4 (distal end of tunnel)): 9OJ1 (DA-0854)

SMILES: O=C(O)c1cn2cc(Cl)ccc2n1 [4R-0623]
crystal structure (soaking); WAC-MS hit ([2]; region 1, two sites): 9OHJ (4R-0623)
